Laboratory results reported in patent US12510533B2, “Methods for treating multiple myeloma and the use of companion biomarkers for 4-(4-(4-(((2-(2,6-dioxopiperidin-3-yl)-1-oxoisoindolin-4-yl)oxy)methyl)benzyl)piperazin-1-yl)-3-fluorobenzonitrile” (Celgene Corporation, priority 2018, dated 2025).

Experiments:
NCI-H929 = assay: Tumor cell lysis by anti-CD3-activated, compound-treated PBMCs, co-culture with untreated NCI-H929; format: cell-based; conditions: Homo sapiens; lenalidomide-sensitive NCI-H929, untreated; 24-hour co-culture
Aiolos and Ikaros = Aiolos and Ikaros degradation and re-expression by flow cytometry in H929-1051 and OPM2-P10 cells; format: cell-based, human
Protocol: The cell lines were treated with a single continuous exposure to Compound 2, with no washout, and the levels of Aiolos and Ikaros were measured by flow cytometry. After treatment there was greater than 70% degradation of Aiolos and Ikaros within 3 to 6 hours, depending on the cell line (FIG. 7A and FIG. 7B). The depletion of substrates was sustained for up to 70 hours in H929-1051 cells or up to 100 hours in OPM2-P10 cells (FIG. 7A and FIG. 7B). Increasing the concentration 10-fold to 0.1 μM produced little to no additional degradation (FIG. 7A and FIG. 7B).
The effect of transient exposures of H929-1051 cells to Compound 2 on the degradation of Aiolos and Ikaros was also evaluated. A short transient exposure of 15 minutes at 0.1 μM Compound 2 induced Aiolos and Ikaros degradation (FIG. 8). Although the extent of degradation (25% to 50%) was not complete, a prolonged pharmacodynamic (PD) effect was seen that lasted between 25 and 50 hours post-exposure (FIG. 8).
To further understand the kinetics of Compound 2 exposure and Aiolos and Ikaros degradation, a longer exposure of 6 hours to Compound 2 (0.01 and 0.1 μM), followed by washout was investigated. Treatment with Compound 2 produced greater than 70% degradation of Aiolos and Ikaros (FIG. 9). […] Greater than 75% substrate recovery was seen by 25 hours in cells exposed to 0.01 μM Compound 2 and within 75 to 100 hours in cultures exposed to 0.1 μM Compound 2 (FIG. 9).

Aiolos, Ikaros, ZFP91 = assay: Immunoblot of OPM2 cells after five-day incubation; format: cell-based, human; conditions: Compound 2 alone
Protocol: FIG. 4 illustrates that Compound 2 induced the degradation of Ikaros, Aiolos, ZFP91, c-Myc, and IRF4, which correlates with induction of the apoptotic protein cleaved-Caspase 3, and the cell cycle arrest protein p21. Immunoblot analysis of OPM2 parental cells incubated with Compound 2 at the indicated concentrations is shown. Actin is a loading control.
Ikaros and Aiolos degradation was followed by reduction in the levels of two additional and highly critical transcription factors, c-Myc and IRF4 (FIG. 4). The loss or reduction of these factors was associated with an increase of the cyclin-dependent kinase inhibitor p21 and induction of apoptosis, as measured by cleaved caspase-3 (FIG. 4).

IL-2 = IL-2 secretion from anti-CD3 antibody-stimulated healthy donor PBMCs; format: cell-based, human
Protocol: The immunomodulatory activity of Compound 2 on T cell receptor (TCR)-activated healthy PBMCs was assessed.
The effect of Compound 2 in combination with different concentrations of dexamethasone on the ability of PBMCs to produce IL-2 was explored. […]

Ikaros = Ikaros (Homo sapiens, UniProt Q13422+Q96SW2); assay: Ikaros level by flow cytometry in ex vivo cultures of healthy donor bone marrow CD34+ cells (neutrophil maturation); format: cell-based; set-up: The effects of Compound 2 on the degradation of Ikaros in CD4+ and CD8+ T cells; endogenous in cells; host or cells: CD4+ and CD8+ T cells of healthy donors; CD34+ bone marrow cells of healthy donors; CD3+ T cells of multiple myeloma patients
Chain of Ikaros (Q13422 whole entry): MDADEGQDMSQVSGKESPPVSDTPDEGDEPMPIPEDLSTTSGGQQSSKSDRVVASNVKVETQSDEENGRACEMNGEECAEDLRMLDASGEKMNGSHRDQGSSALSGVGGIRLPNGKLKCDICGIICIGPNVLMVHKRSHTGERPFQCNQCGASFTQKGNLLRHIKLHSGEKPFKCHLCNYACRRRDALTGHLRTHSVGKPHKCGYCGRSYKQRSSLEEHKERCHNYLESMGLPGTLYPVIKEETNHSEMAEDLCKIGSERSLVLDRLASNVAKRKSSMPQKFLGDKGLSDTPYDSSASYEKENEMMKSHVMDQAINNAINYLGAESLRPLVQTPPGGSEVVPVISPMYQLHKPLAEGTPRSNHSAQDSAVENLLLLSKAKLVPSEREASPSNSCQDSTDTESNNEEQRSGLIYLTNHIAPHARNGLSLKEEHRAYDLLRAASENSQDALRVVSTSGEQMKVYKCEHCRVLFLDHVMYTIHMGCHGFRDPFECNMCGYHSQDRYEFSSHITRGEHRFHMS
Chain of Ikaros (Q16531 2-1140, further chain): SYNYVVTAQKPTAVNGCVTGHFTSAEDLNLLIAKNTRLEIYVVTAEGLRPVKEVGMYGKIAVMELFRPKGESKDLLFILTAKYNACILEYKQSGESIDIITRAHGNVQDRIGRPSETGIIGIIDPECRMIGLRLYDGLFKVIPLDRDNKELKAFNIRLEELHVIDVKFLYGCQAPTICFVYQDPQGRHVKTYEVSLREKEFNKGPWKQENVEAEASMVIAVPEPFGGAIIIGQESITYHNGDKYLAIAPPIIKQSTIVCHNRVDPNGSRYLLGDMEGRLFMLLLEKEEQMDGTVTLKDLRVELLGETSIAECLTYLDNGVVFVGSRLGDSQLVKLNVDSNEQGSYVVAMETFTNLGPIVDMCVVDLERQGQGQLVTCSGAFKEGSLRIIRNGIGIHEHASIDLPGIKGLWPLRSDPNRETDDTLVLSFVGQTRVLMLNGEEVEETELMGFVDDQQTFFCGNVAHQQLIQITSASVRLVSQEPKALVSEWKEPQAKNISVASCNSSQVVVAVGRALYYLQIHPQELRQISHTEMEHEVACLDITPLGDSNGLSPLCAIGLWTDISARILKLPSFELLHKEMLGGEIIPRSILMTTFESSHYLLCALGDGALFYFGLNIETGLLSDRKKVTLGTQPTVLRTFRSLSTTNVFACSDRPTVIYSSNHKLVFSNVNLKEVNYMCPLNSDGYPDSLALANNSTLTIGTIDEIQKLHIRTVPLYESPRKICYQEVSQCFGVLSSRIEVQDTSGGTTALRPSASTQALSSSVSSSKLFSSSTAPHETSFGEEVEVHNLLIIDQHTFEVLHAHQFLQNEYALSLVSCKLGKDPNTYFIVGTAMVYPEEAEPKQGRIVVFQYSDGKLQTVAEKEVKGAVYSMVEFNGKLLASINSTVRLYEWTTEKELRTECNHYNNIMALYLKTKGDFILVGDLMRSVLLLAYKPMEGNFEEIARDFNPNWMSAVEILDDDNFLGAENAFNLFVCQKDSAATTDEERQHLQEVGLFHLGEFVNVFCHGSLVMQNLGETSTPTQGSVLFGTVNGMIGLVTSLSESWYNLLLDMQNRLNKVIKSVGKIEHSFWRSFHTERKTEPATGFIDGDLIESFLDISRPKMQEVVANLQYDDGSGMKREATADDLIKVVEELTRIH
Chain of Ikaros (Q96SW2 whole entry): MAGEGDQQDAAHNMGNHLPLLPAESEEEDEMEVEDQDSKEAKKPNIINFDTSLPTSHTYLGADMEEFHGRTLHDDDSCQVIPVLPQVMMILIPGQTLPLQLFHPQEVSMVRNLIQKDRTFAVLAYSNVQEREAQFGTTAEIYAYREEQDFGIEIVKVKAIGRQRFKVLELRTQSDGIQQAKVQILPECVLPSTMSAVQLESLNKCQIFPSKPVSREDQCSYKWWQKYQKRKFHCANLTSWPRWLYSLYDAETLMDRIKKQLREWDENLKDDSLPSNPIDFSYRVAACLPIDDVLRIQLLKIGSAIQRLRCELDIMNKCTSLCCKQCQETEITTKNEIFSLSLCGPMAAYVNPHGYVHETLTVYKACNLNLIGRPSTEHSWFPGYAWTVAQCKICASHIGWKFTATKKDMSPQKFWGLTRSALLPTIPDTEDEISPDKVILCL
Protocol: Ex vivo cultures of bone marrow (BM) CD34^+ cells from healthy donors (HD) were used to investigate the effect of Compound 2 on neutropenia. […] Therefore, we monitored the effects of Compound 2 on mature neutrophils.
Ikaros protein level was analyzed by flow cytometry after each exposure period, and also at Days 19, 21, and 23 corresponding to 3, 5, and 7 days following the last exposure, respectively. CD34^+ cells derived from healthy donor bone marrow were exposed to different concentrations of Compound 2 and different incubation schedules. The percentage of Ikaros content (normalized to the DMSO control) following Compound 2 exposure at concentrations of 1, 10, and 100 nM for 2, 4, and 6 hours on each of 1, 2, or 3 consecutive days starting on Day 14 were measured. At the end of the exposure period, Compound 2 was removed and cells were incubated in the absence of Compound 2 (recovery period). Ikaros was measured by flow cytometry after incubation with Compound 2 (Days 14 to 16) and during recovery on Days 19, 21, and 23. Ikaros levels were reduced during Compound 2 exposure and recovered following drug withdrawal in a concentration-dependent manner with no significant differences noted in association with different exposure schedules (FIG. 13). Ikaros levels began returning to normal after at least 3 days following washout, pre-dating full recovery of maturation of late-stage neutrophil precursors.
To further explore the role of Ikaros in relationship to the maturation of neutrophil progenitors, Ikaros protein levels were analyzed by flow cytometry after each exposure and every other day following the last exposure to Compound 2. […] After 3 days of exposure to Compound 2, the recovery of Ikaros began in a concentration-dependent manner just 24 hours after drug washout and returned to control levels after 10 days (FIG. 14; FIG. 16B). With 5 days of exposure to Compound 2, recovery of Ikaros started on Day 17, three days after drug washout (FIG. 15). […]

[1] = system: multiple myeloma cell lines with acquired resistance; assay: Proliferation (CellTiter-Glo, 5 days) of parental and lenalidomide- or pomalidomide-resistant MM cell lines; format: cell-based, human
Protocol: Cell lines were treated with (FIG. 11A) Pomalidomide, or (FIG. 11B) Compound 2 for 5 days and IC50 values were assessed using an ATP determination assay (CellTiter-Glo). Percent control was calculated by subtracting the background and normalizing to the DMSO control (100% of control).
Cells were treated for 5 days and then assessed using an ATP determination assay (CellTiter-Glo). The percentage of control was calculated by subtracting the background and normalizing to the DMSO control (100% of control).
Proliferation was assessed using the CellTitre-Glo® assay.

[2] = continuous exposure, OPM2-P10 cells

For N#Cc1ccc(N2CCN(Cc3ccc(COc4cccc5c4CN([C@H]4CCC(=O)NC4=O)C5=O)cc3)CC2)c(F)c1 [Compound 2, (S)-4-(4-(4-(((2-(2,6-dioxopiperidin-3-yl)-1-oxoisoindolin-4-yl)oxy)methyl)benzyl)piperazin-1-yl)-3-fluorobenzonitrile], which IC50 (NCI-H929) is on record?
The IC50 was 5 nM.

And the “degradation of Aiolos and Ikaros” value (Aiolos and Ikaros; 6 hours exposure (0.01 and 0.1 μM) followed by washout)?
Its value is “greater than 70%”.

What about the “duration of sustained depletion of substrates” value (Aiolos and Ikaros; continuous exposure, H929-1051 cells) of the same compound?
Its value is “up to 70 hours”.

What about the “duration of sustained degradation of both proteins (Aiolos and Ikaros)” value (Aiolos and Ikaros; [2]) of the same compound?
Its value is “more than 150 hours”.

And the “duration of sustained depletion of substrates” value (Aiolos and Ikaros; [2])?
Its value is “up to 100 hours”.

And the “degradation of Aiolos and Ikaros” value (Aiolos and Ikaros; single continuous exposure, no washout, H929-1051 and OPM2-P10)?
The value was “greater than 70%”.

And the “expression level of Aiolos and Ikaros, as well as ZFP91” value (Aiolos, Ikaros, ZFP91)?
Its value is “significantly decreased”.

What about the “peak IL-2 production above the vehicle control” value (IL-2; 24 hours) of the same compound?
Its value is 5.5 fold.

What about the EC50 (IL-2; Homo sapiens, PBMC, 72 h, read-out: IL-2 secretion, mean half-maximal effective concentration (EC50)) of the same compound?
The EC50 was 0.014 nM.

What about the “Compound 2 concentration at peak IL-2 response” value (IL-2; in combination with 10 nM dexamethasone) of the same compound?
Its value is 10 pM.

And the “IL-2 induction above the vehicle control” value (IL-2; in combination with 10 nM dexamethasone, 4 donors, 72 hours)?
The value was “at least 10 fold”.

And the IL-2 induction (IL-2; in combination with 100 nM dexamethasone)?
The IL-2 induction was “little induction of IL-2 above baseline”.

What about the “time following washout at which Ikaros levels began returning to normal” value (Ikaros; 2, 4, 6 hour exposures on 1 to 3 consecutive days from Day 14) of the same compound?
The value was “at least 3 days”.

What about the “time for Ikaros to return to control levels” value (Ikaros; 3 days of 6-hour exposures) of the same compound?
Its value is 10 days.

What about the “Ikaros degradation after one exposure” value (Ikaros; all concentrations (1, 10, 100 nM) and all exposure schedules) of the same compound?
Its value is “fully degraded”.

And the “sensitivity of cell lines with acquired resistance and low CRBN” value [1]?
Its value is “sensitive”.

What about the anti-proliferative activity ([1]; DF15R cell line, lacks CRBN expression) of the same compound?
Its anti-proliferative activity is “little anti-proliferative activity”.
